Legend:
[1] = biological target: Vascular endothelial growth factor receptor 2 (Homo sapiens) (UniProt P35968); assay: Inhibition of human VEGFR2 assessed as remaining enzyme activity at 1 uM
[2] = biological target: Mitogen-activated protein kinase 14 (Homo sapiens) (UniProt Q16539); assay: Inhibition of human p38alpha assessed as remaining enzyme activity at 1 uM
[3] = biological target: BDNF/NT-3 growth factors receptor (Homo sapiens) (UniProt Q16620); assay: Inhibition of human TRKB assessed as remaining enzyme activity at 1 uM
[4] = biological target: NT-3 growth factor receptor (Homo sapiens) (UniProt Q16288); assay: Inhibition of human TRKC assessed as remaining enzyme activity at 1 uM
[5] = biological target: Ephrin type-A receptor 2 (Homo sapiens) (UniProt P29317); assay: Inhibition of human EphA2 assessed as remaining enzyme activity at 1 uM
[6] = biological target: Serine/threonine-protein kinase B-raf (Homo sapiens) (UniProt P15056); assay: Inhibition of human B-Raf assessed as remaining enzyme activity at 1 uM
[7] = biological target: RAF proto-oncogene serine/threonine-protein kinase (Homo sapiens) (UniProt P04049); assay: Inhibition of human C-Raf assessed as remaining enzyme activity at 1 uM
[8] = biological target: Tyrosine-protein kinase ABL2 (Mus musculus) (UniProt Q4JIM5); assay: Inhibition of mouse ARG assessed as remaining enzyme activity at 1 uM
[9] = biological target: Macrophage colony-stimulating factor 1 receptor (Homo sapiens) (UniProt P07333); assay: Inhibition of human FMS assessed as remaining enzyme activity at 1 uM
[10] = biological target: Homeodomain-interacting protein kinase 3 (Homo sapiens) (UniProt Q9H422); assay: Inhibition of human HIPK3 assessed as remaining enzyme activity at 1 uM
[11] = biological target: Homeodomain-interacting protein kinase 2 (Homo sapiens) (UniProt Q9H2X6); assay: Inhibition of human HIPK2 assessed as remaining enzyme activity at 1 uM
[12] = biological target: Receptor-type tyrosine-protein kinase FLT3 (Homo sapiens) (UniProt P36888); assay: Inhibition of human FLT3 assessed as remaining enzyme activity at 1 uM
Homo sapiens = species on record: Homo sapiens; assay: Inhibition of human p70S6K assessed as remaining enzyme activity at 1 uM
[13] = biological target: LIM domain kinase 1 (Homo sapiens) (UniProt P53667); assay: Inhibition of human LIMK1 assessed as remaining enzyme activity at 1 uM
[14] = biological target: Cyclin-dependent kinase-like 2 (Homo sapiens) (UniProt Q92772); assay: Inhibition of human CDKL2 assessed as remaining enzyme activity at 1 uM
[15] = biological target: Vascular endothelial growth factor receptor 3 (Homo sapiens) (UniProt P35916); assay: Inhibition of human VEGFR3 assessed as remaining enzyme activity at 0.1 uM
[16] = biological target: Vascular endothelial growth factor receptor 1 (Homo sapiens) (UniProt P17948); assay: Inhibition of human VEGFR1 assessed as remaining enzyme activity at 0.1 uM
[17] = biological target: RAF proto-oncogene serine/threonine-protein kinase (Homo sapiens) (UniProt P04049); assay: Inhibition of human RAF1 assessed as remaining enzyme activity at 0.1 uM
[18] = biological target: Mitogen-activated protein kinase 14 (Homo sapiens) (UniProt Q16539); assay: Inhibition of human p38alpha assessed as remaining enzyme activity at 0.1 uM
[19] = biological target: Tyrosine-protein kinase ABL1 (Mus musculus) (UniProt P00520); assay: Inhibition of mouse Abl assessed as remaining enzyme activity at 0.1 uM
[20] = biological target: NT-3 growth factor receptor (Homo sapiens) (UniProt Q16288); assay: Inhibition of human TRKC assessed as remaining enzyme activity at 0.1 uM
[21] = biological target: Tyrosine-protein kinase FRK (Homo sapiens) (UniProt P42685); assay: Inhibition of human PTK5 assessed as remaining enzyme activity at 0.1 uM
[22] = biological target: Tyrosine-protein kinase ABL1 (Homo sapiens) (UniProt P00519); assay: Inhibition of human ABL assessed as remaining enzyme activity at 0.1 uM
[23] = biological target: RAF proto-oncogene serine/threonine-protein kinase (Homo sapiens) (UniProt P04049); assay: Inhibition of human C-Raf assessed as remaining enzyme activity at 0.1 uM
[24] = biological target: Tyrosine-protein kinase ABL2 (Mus musculus) (UniProt Q4JIM5); assay: Inhibition of mouse ARG assessed as remaining enzyme activity at 0.1 uM
[25] = biological target: Macrophage colony-stimulating factor 1 receptor (Homo sapiens) (UniProt P07333); assay: Inhibition of human FMS assessed as remaining enzyme activity at 0.1 uM
[26] = biological target: Vascular endothelial growth factor receptor 3 (Homo sapiens) (UniProt P35916); assay: Inhibition of human VEGFR3 assessed as remaining enzyme activity at 0.01 uM
[27] = biological target: Vascular endothelial growth factor receptor 1 (Homo sapiens) (UniProt P17948); assay: Inhibition of human VEGFR1 assessed as remaining enzyme activity at 0.01 uM
[28] = biological target: Mitogen-activated protein kinase kinase kinase 20 (Homo sapiens) (UniProt Q9NYL2); assay: Inhibition of human ZAK assessed as remaining enzyme activity at 0.01 uM
[29] = biological target: BDNF/NT-3 growth factors receptor (Homo sapiens) (UniProt Q16620); assay: Inhibition of human TRKB assessed as remaining enzyme activity at 0.01 uM
[30] = biological target: Tyrosine-protein kinase FRK (Homo sapiens) (UniProt P42685); assay: Inhibition of human PTK5 assessed as remaining enzyme activity at 0.01 uM
[31] = biological target: Ephrin type-A receptor 2 (Homo sapiens) (UniProt P29317); assay: Inhibition of human EphA2 assessed as remaining enzyme activity at 0.01 uM
[32] = biological target: Serine/threonine-protein kinase B-raf (Homo sapiens) (UniProt P15056); assay: Inhibition of human B-Raf assessed as remaining enzyme activity at 0.01 uM
[33] = biological target: Tyrosine-protein kinase ABL2 (Mus musculus) (UniProt Q4JIM5); assay: Inhibition of mouse ARG assessed as remaining enzyme activity at 0.01 uM

Sequence of Tyrosine-protein kinase ABL2 (Mus musculus) (Q4JIM5 whole entry): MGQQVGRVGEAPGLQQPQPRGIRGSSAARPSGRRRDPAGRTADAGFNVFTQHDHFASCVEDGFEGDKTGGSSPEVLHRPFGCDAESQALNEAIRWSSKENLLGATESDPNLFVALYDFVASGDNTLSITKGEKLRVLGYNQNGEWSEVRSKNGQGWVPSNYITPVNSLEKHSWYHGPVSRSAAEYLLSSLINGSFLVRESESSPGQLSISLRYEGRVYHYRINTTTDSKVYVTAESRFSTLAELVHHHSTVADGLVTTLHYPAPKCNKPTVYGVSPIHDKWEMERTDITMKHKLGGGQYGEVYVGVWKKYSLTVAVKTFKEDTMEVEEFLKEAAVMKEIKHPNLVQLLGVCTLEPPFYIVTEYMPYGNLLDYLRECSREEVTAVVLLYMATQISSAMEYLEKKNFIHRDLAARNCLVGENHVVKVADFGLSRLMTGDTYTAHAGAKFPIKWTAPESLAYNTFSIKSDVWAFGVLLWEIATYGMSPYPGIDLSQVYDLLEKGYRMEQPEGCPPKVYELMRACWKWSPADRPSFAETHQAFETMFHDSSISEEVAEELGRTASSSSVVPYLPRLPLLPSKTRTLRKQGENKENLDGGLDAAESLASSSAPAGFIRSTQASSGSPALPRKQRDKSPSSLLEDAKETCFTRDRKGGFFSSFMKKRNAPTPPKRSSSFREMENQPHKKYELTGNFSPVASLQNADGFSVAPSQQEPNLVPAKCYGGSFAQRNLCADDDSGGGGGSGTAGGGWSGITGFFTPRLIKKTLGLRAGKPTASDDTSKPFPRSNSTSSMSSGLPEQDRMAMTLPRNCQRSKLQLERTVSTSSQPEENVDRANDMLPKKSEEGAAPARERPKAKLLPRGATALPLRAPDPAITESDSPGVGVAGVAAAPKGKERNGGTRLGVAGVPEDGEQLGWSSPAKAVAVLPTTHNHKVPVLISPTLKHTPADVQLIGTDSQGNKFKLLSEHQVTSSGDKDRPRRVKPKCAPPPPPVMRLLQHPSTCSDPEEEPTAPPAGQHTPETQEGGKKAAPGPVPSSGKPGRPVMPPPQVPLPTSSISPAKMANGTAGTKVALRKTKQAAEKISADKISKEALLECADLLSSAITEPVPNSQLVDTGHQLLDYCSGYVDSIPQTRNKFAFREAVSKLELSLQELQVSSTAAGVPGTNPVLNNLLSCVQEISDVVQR
Sequence of RAF proto-oncogene serine/threonine-protein kinase (Homo sapiens) (P04049 whole entry): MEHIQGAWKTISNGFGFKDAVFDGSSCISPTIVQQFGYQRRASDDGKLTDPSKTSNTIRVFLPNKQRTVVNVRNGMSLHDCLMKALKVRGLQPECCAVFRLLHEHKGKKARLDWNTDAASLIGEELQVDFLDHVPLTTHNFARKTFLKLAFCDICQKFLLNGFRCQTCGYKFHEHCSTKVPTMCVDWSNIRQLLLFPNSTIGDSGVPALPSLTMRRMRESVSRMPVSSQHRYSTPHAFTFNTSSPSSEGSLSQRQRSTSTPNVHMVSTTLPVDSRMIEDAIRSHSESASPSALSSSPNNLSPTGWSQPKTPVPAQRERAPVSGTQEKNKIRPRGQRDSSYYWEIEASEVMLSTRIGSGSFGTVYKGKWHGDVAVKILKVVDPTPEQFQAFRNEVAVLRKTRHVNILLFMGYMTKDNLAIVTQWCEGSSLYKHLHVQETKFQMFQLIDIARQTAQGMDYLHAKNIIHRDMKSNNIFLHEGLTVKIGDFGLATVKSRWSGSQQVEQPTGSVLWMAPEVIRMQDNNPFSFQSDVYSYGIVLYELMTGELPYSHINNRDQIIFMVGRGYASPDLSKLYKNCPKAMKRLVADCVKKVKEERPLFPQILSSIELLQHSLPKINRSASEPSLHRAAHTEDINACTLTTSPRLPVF
Sequence of NT-3 growth factor receptor (Homo sapiens) (Q16288 32-839 limits assumed): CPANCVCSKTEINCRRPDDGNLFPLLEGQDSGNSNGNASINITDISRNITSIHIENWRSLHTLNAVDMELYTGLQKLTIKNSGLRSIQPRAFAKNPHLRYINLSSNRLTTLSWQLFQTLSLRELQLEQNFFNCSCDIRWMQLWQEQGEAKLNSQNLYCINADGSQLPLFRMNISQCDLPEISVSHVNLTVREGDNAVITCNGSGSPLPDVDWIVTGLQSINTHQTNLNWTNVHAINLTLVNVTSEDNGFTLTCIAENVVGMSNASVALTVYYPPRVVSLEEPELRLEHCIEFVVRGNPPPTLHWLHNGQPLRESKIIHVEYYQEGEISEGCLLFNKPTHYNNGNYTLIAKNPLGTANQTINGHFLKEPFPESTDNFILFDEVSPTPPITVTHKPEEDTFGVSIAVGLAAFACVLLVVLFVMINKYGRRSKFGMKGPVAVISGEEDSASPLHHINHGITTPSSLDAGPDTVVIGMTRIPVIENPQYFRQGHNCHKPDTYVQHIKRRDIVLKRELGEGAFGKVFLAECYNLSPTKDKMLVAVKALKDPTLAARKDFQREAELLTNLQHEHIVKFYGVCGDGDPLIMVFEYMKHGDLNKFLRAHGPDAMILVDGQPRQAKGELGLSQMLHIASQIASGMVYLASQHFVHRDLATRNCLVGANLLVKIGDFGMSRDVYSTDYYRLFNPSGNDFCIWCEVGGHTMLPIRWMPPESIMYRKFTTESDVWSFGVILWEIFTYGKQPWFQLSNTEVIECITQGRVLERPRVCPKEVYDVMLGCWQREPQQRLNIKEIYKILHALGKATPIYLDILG
Sequence of BDNF/NT-3 growth factors receptor (Homo sapiens) (Q16620 32-822 limits assumed): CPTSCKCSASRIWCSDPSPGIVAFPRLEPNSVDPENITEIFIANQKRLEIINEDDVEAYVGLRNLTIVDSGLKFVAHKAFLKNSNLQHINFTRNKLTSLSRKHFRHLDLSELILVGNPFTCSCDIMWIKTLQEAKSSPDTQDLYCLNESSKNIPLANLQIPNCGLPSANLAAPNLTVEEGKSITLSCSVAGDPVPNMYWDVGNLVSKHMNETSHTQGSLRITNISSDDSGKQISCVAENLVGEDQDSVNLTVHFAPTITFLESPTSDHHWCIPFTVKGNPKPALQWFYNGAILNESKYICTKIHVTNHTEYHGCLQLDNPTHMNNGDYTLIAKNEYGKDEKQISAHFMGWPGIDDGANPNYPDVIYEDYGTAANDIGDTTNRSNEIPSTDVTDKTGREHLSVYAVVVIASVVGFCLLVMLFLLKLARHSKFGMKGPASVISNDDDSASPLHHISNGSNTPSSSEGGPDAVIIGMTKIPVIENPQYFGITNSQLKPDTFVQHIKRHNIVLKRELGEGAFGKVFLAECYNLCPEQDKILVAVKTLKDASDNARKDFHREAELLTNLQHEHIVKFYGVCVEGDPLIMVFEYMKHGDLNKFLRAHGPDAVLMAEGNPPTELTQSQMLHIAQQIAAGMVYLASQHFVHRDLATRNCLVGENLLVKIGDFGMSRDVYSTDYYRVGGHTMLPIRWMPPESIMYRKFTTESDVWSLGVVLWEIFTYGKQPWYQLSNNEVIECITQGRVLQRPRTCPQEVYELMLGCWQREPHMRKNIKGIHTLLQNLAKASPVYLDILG
Sequence of Vascular endothelial growth factor receptor 1 (Homo sapiens) (P17948 whole entry): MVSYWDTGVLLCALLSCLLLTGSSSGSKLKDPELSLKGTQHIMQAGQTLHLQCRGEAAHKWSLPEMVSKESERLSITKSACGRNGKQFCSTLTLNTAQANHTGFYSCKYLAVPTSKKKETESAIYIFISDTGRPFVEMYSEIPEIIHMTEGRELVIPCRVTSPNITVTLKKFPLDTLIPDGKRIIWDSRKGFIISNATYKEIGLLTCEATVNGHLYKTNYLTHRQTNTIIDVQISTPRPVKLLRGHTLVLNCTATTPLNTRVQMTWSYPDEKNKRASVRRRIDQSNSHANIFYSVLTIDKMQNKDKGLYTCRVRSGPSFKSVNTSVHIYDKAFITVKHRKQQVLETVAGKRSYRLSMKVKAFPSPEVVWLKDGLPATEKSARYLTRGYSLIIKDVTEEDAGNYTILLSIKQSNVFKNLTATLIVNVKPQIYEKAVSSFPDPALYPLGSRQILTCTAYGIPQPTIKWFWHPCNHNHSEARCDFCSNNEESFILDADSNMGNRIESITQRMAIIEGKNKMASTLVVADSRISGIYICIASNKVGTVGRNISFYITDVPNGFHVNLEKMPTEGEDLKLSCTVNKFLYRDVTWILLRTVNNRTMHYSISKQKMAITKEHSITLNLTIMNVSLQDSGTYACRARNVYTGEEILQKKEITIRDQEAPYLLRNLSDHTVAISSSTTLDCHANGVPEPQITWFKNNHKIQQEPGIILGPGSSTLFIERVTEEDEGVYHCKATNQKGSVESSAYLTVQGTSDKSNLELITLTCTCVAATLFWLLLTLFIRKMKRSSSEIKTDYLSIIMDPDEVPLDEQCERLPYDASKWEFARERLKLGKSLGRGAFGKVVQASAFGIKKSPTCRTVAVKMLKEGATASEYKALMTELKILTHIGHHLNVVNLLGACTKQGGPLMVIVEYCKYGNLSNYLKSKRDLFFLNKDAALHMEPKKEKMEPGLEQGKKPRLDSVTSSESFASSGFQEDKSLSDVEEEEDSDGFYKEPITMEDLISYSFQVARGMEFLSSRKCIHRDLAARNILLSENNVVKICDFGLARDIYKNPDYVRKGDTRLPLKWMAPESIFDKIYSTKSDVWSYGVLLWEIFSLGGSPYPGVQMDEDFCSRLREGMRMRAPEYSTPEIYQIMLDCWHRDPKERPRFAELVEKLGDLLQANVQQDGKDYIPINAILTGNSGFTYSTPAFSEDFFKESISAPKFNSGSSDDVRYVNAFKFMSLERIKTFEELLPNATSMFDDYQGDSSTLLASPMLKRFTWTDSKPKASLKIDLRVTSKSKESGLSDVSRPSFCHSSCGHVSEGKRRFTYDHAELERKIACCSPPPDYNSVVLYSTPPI

Activity [1]: 17% | Activity [2]: -6% | Activity [3]: 1% | Activity [4]: 1% | Activity [5]: 5% | Activity [6]: 8% | Activity [7]: 8% | Activity [8]: 9% | Activity [9]: 10% | Activity [10]: 12% | Activity [11]: 13% | Activity [12]: 31% | Activity (Homo sapiens): 36% | Activity [13]: 46% | Activity [14]: 47% | Activity [15]: 1% | Activity [16]: 3% | Activity [17]: 57% | Activity [18]: 52% | Activity [19]: -7% | Activity [20]: 17% | Activity [21]: 18% | Activity [22]: 49% | Activity [23]: 57% | Activity [24]: 29% | Activity [25]: 36% | Activity [26]: 38% | Activity [27]: 43% | Activity [28]: 27% | Activity [29]: 100% | Activity [30]: 64% | Activity [31]: 90% | Activity [32]: 101% | Activity [33]: 97%
Compound: CNC(=O)c1cc(Oc2ccc(NC(=O)Nc3ccc(Cl)c(C(F)(F)F)c3)c(F)c2)ccn1
